# Test results published in PMC6749586, “Design, Synthesis, and Anticancer Effect Studies of Iridium(III) Polypyridyl Complexes against SGC-7901 Cells” (Molecules, 2019).
# System: Eca-109 cells
# Test: MTT cytotoxicity assay, Eca-109
# Type: cell-based, human
# Conditions: 48 h, read-out: IC50 toward Eca-109
# Text: The lung carcinoma cell line A549, the cervical cancer cell line HeLa, the esophageal cancer cell line Eca-109, and the human hepatocellular carcinoma cell line BEL-7402 were purchased from the cell bank of the Cell Institute of Sinica Academia Shanghai (Shanghai, China). The gastric adenocarcinoma cell line SGC-7901, the hepatocellular carcinoma cell line HepG2, and the mouse embryonic fibroblast cell line NIH 3T3 were obtained from the Experimental Animal Center of Sun Yat-Sen University (Guangzhou, China). […] Cell passage experiments were performed with trypsin every 2 days to maintain exponential growth. All cells were cultured until they reached logarithmic growth phase, unless specifically noted. Cell cytotoxicity following treatment with the iridium(III) complexes was detected by MTT assay. The cells were seeded into 96-well micro-assay culture plates (1 × 10^4 cells per well) and grown overnight in a 5% CO2 incubator at 37 °C. Then, the cell lines were treated with gradient concentrations of the complexes 1–3. After treatment for 48 h, MTT solution (5 mg mL^−1, […]) dissolved in phosphate buffer was added to each well and the cells were further cultured for 4 h. […] The absorbance of each well was measured with a microplate reader at a wavelength of 490 nm. The IC50 values were determined from the plots of viability versus concentration used to treat the cells. Three independent experiments were performed to obtain the mean values.
row,SMILES,IC50 [µM]
1,"F[P-](F)(F)(F)(F)F.O=[N+]([O-])c1cc2ccc[n+]3c2c2c1ccc[n+]2[Ir-5]312([c]3ccccc3-c3cccc[n+]31)[c]1ccccc1-c1cccc[n+]12 [Complex 1, [Ir(Hppy)2(NP)]PF6]",20.3 ± 0.9
2,"F[P-](F)(F)(F)(F)F.Nc1c([N+](=O)[O-])c2cccnc2c2ncccc12.[Ir+3].[c-]1ccccc1-c1ccccn1.[c-]1ccccc1-c1ccccn1 [Complex 2, [Ir(Hppy)2(NAP)]PF6]",72.6 ± 5.3
3,"F[P-](F)(F)(F)(F)F.Nc1c(N)c2cccnc2c2ncccc12.[Ir+3].[c-]1ccccc1-c1ccccn1.[c-]1ccccc1-c1ccccn1 [Complex 3, [Ir(Hppy)2(DAP)]PF6]",97.1 ± 0.2
